From ChEMBL document CHEMBL1130402, “Effect of stereochemistry on the clearance mechanism of 111In(III)-labeled D- or L-benzyldiethylenetriaminepentaacetic acid” (J Med Chem, 1997)

Key:
Rattus norvegicus [1] = species on record: Rattus norvegicus; test: Kidney uptake in normal Wistar rats at 30 min; type: ADME, organism-based; conditions: in vivo, 0.5 h
Rattus norvegicus [2] = species on record: Rattus norvegicus; test: Kidney uptake in normal Wistar rats at 60 min; type: ADME, organism-based; conditions: in vivo, 1 h
Rattus norvegicus [3] = species on record: Rattus norvegicus; test: The biodistribution in liver in normal Wistar rats at 15 min; type: ADME, organism-based; conditions: in vivo, 0.25 h
Rattus norvegicus [4] = species on record: Rattus norvegicus; test: The biodistribution in blood in normal Wistar rats at 30 min; type: ADME, organism-based; conditions: in vivo, 0.5 h
Rattus norvegicus [5] = species on record: Rattus norvegicus; test: The biodistribution in blood in normal Wistar rats at 60 min; type: ADME, organism-based; conditions: in vivo, 1 h
Rattus norvegicus [6] = species on record: Rattus norvegicus; test: Ratio of biodistribution in liver and blood in normal Wistar rats at 5 min. after injecting the compound; type: ADME, organism-based; conditions: in vivo
[7] = Compound was tested for % clearance through the faeces in Wistar rats; type: ADME, organism-based; conditions: rat, read-out: Feces
Rattus norvegicus [8] = species on record: Rattus norvegicus; test: The biodistribution in bone in normal Wistar rats at 15 min; type: ADME, organism-based, Bone element; conditions: in vivo, 0.25 h
Rattus norvegicus [9] = species on record: Rattus norvegicus; test: Ratio of biodistribution in kidney and blood in normal Wistar rats at 60 min after injecting the compound; type: ADME, organism-based; conditions: in vivo, 1 h
Rattus norvegicus [10] = species on record: Rattus norvegicus; test: The biodistribution in bone in normal Wistar rats at 5 min; type: ADME, organism-based, Bone element; conditions: in vivo
[11] = Compound was tested for % clearance through the urine in jaundiced (TR-) Wistar rats; type: ADME, organism-based; conditions: rat
Rattus norvegicus [12] = species on record: Rattus norvegicus; test: Ratio of biodistribution in kidney and blood in normal Wistar rats at 5 min after injecting the compound.; type: ADME, organism-based; conditions: in vivo
Rattus norvegicus [13] = species on record: Rattus norvegicus; test: The biodistribution in blood in normal Wistar rats at 5 min; type: ADME, organism-based; conditions: in vivo
Rattus norvegicus [14] = species on record: Rattus norvegicus; test: The biodistribution in liver in normal Wistar rats at 5 min; type: ADME, organism-based; conditions: in vivo
Rattus norvegicus [15] = species on record: Rattus norvegicus; test: The biodistribution in bone in normal Wistar rats at 30 min; type: ADME, organism-based, Bone element; conditions: in vivo, 0.5 h
Rattus norvegicus [16] = species on record: Rattus norvegicus; test: Ratio of biodistribution in liver and blood in normal Wistar rats at 60 min. after injecting the compound; type: ADME, organism-based; conditions: in vivo, 1 h
Rattus norvegicus [17] = species on record: Rattus norvegicus; test: Ratio of biodistribution in liver and blood in normal Wistar rats at 30 min. after injecting the compound; type: ADME, organism-based; conditions: in vivo, 0.5 h
[18] = Compound was tested for % clearance through the urine in normal rat; type: ADME, organism-based
Rattus norvegicus [19] = species on record: Rattus norvegicus; test: Ratio of biodistribution in liver and blood in normal Wistar rats at 15 min. after injecting the compound; type: ADME, organism-based; conditions: in vivo, 0.25 h
Rattus norvegicus [20] = species on record: Rattus norvegicus; test: Kidney uptake in normal Wistar rats at 15 min; type: ADME, organism-based; conditions: in vivo, 0.25 h
[21] = Compound was tested for % clearance through the faeces in jaundice Wistar rats; type: ADME, organism-based; conditions: rat, read-out: Feces
Rattus norvegicus [22] = species on record: Rattus norvegicus; test: Kidney uptake in normal Wistar rats at 5 min; type: ADME, organism-based; conditions: in vivo
Rattus norvegicus [23] = species on record: Rattus norvegicus; test: The biodistribution in bone in normal Wistar rats at 60 min; type: ADME, organism-based, Bone element; conditions: in vivo, 1 h
Rattus norvegicus [24] = species on record: Rattus norvegicus; test: Ratio of biodistribution in kidney and blood in normal Wistar rats at 15 min after injecting the compound.; type: ADME, organism-based; conditions: in vivo, 0.25 h
Rattus norvegicus [25] = species on record: Rattus norvegicus; test: The biodistribution in liver in normal Wistar rats at 30 min; type: ADME, organism-based; conditions: in vivo, 0.5 h
Rattus norvegicus [26] = species on record: Rattus norvegicus; test: The biodistribution in liver in normal Wistar rats at 60 min; type: ADME, organism-based; conditions: in vivo, 1 h
Rattus norvegicus [27] = species on record: Rattus norvegicus; test: Ratio of biodistribution in kidney and blood in normal Wistar rats at 30 min after injecting the compound; type: ADME, organism-based; conditions: in vivo, 0.5 h
Rattus norvegicus [28] = species on record: Rattus norvegicus; test: The biodistribution in blood in normal Wistar rats at 15 min; type: ADME, organism-based; conditions: in vivo, 0.25 h
Rattus norvegicus [29] = species on record: Rattus norvegicus; test: Ratio of biodistribution in kidney and blood in normal Wistar rats at 15 min after injecting the compound; type: ADME, organism-based; conditions: in vivo, 0.25 h
[30] = Compound was tested for % clearance through the faeces in jaundiced (TR-) Wistar rats; type: ADME, organism-based; conditions: rat, read-out: Feces
Rattus norvegicus [31] = species on record: Rattus norvegicus; test: Ratio of biodistribution in kidney and blood in normal Wistar rats at 5 min after injecting the compound; type: ADME, organism-based; conditions: in vivo
[32] = Compound was tested for % clearance through the faeces in normal Wistar rats; type: ADME, organism-based; conditions: rat, read-out: Feces

O=C(O)CN(CCN(CCN(CC(=O)O)CC(=O)O)[C@H](Cc1ccccc1)C(=O)O)CC(=O)O
ID/organ (Rattus norvegicus [1]): 0.92%
ID/organ (Rattus norvegicus [2]): 0.57%
ID/organ (Rattus norvegicus [3]): 7.63%
ID/organ (Rattus norvegicus [4]): 2.03%
ID/organ (Rattus norvegicus [5]): 0.71%
ID/organ (Rattus norvegicus [6]): 1.46
dose excreted [7]: 42.8%
ID/organ (Rattus norvegicus [8]): 3.81%
ID/organ (Rattus norvegicus [9]): 0.82
ID/organ (Rattus norvegicus [10]): 3.28%
dose excreted [11]: 80.4%
ID/organ (Rattus norvegicus [12]): 0.33
ID/organ (Rattus norvegicus [13]): 10.7%
ID/organ (Rattus norvegicus [14]): 15.6%
ID/organ (Rattus norvegicus [15]): 2.31%
ID/organ (Rattus norvegicus [16]): 1.6
ID/organ (Rattus norvegicus [17]): 1.55
dose excreted [18]: 51.9%
ID/organ (Rattus norvegicus [19]): 1.69
ID/organ (Rattus norvegicus [20]): 1.63%
dose excreted [21]: 10.6%
ID/organ (Rattus norvegicus [22]): 3.45%
ID/organ (Rattus norvegicus [23]): 2.4%
ID/organ (Rattus norvegicus [24]): 0.36
ID/organ (Rattus norvegicus [25]): 3.15%
ID/organ (Rattus norvegicus [26]): 1.1%
ID/organ (Rattus norvegicus [27]): 0.46
ID/organ (Rattus norvegicus [28]): 4.67%

O=C(O)CN(CCN(CCN(CC(=O)O)CC(=O)O)[C@@H](Cc1ccccc1)C(=O)O)CC(=O)O
ID/organ (Rattus norvegicus [1]): 1.96%
ID/organ (Rattus norvegicus [2]): 1.1%
ID/organ (Rattus norvegicus [3]): 6.84%
ID/organ (Rattus norvegicus [4]): 2.66%
ID/organ (Rattus norvegicus [5]): 0.86%
ID/organ (Rattus norvegicus [6]): 1.04
ID/organ (Rattus norvegicus [29]): 0.48
ID/organ (Rattus norvegicus [8]): 3.76%
dose excreted [30]: 3.3%
ID/organ (Rattus norvegicus [9]): 1.3
ID/organ (Rattus norvegicus [10]): 4.59%
dose excreted [11]: 85%
ID/organ (Rattus norvegicus [31]): 0.37
ID/organ (Rattus norvegicus [13]): 12.7%
ID/organ (Rattus norvegicus [14]): 13.2%
ID/organ (Rattus norvegicus [15]): 2.17%
dose excreted [32]: 29.2%
ID/organ (Rattus norvegicus [16]): 0.99
ID/organ (Rattus norvegicus [17]): 0.9
dose excreted [18]: 62%
ID/organ (Rattus norvegicus [19]): 1.1
ID/organ (Rattus norvegicus [20]): 3.04%
ID/organ (Rattus norvegicus [22]): 4.74%
ID/organ (Rattus norvegicus [23]): 2.43%
ID/organ (Rattus norvegicus [25]): 2.37%
ID/organ (Rattus norvegicus [26]): 0.82%
ID/organ (Rattus norvegicus [27]): 0.74
ID/organ (Rattus norvegicus [28]): 6.36%
